Structures can show the parent of a compound that is named as a salt.

In this data set the test system is mouse. Kind of data set: toxicity on intraperitoneal dosage in the mouse. Type of data set: in vivo. How it is done: In using the compounds of this invention to inhibit prolactin secretion or to treat Parkinson's syndrome or for other pharmacologic action, a pharmaceutically active compound according to Formula I above, or a salt thereof with a pharmaceutically-acceptable acid, is administered to a subject suffering from Parkinsonism or in need of having their prolactin level reduced in an amount effective to alleviate some of the symptoms of Parkinsonism or to reduce an elevated prolactin level. Oral administration is preferred. If parenteral administration is used, the injection is preferably by the subcutaneous route using an appropriate pharmaceutical formulation. […] In particular, with intravenous or intramuscular administration, a water soluble pharmaceutically-acceptable salt is employed. For oral administration, a pharmaceutically active compound according to Formula I either as the free base or in the form of a salt thereof can also be mixed with standard pharmaceutical excipients and loaded into empty telescoping gelatin capsules or pressed into tablets. The oral dosage range is from about 0.01 to 10 mg/kg of mammalian weight and the parenteral dose range from about 0.0025 to 2.5 mg/kg of mammalian weight.

As for `CCCN(CCC)C1CCc2c[nH]cc2C1` (racemic) [dl-5-di-n-propylamino-4,5,6,7-tetrahydro-2H-benzo[c]pyrrole maleate], where the note is “10-30 mg/kg”, the deaths result is “no deaths”. Moreover, the “deaths (fatal dosages)” value (100-300 mg/kg) is reported as “fatal”.

Source of the values: patent US4264622A, “Tetrahydro-2H-benzo[c]pyrroles to inhibit prolactin secretion” (Eli Lilly and Company, priority 1980, dated 1981).
